Experimental data reported in patent US5866577A, “Aromatic amidine derivatives and salts thereof” (priority 1991, dated 1999).
Where a name gives a salt, the structure may show the parent alone.

What was measured:
[1] = test system: human blood plasma (clotting time); assay: Measurement of Anticoagulant Activity (plasma clotting time, CT2); type: biochemical; conditions: concentration which doubles the control clotting time, 37° C.
Description: Measurement of Anticoagulant Activity A blood plasma sample was prepared from human blood using a centrifuge. […] Thereafter, clotting time was measured using CLOTEC (Sanko Junyaku Co., Ltd.). A clotting time measured without adding a compound to be tested was used as a control, and a concentration of the test compound which doubles the control clotting time was calculated (hereinafter referred to as "CT2") as an index of the anticoagulant activity.

[2] = Measurement of Solubility in Water
Description: A fixed amount of water was added to a varying amounts of each sample, and the mixture was agitated on a shaker at 25° C. for 10 minutes.

FXa and thrombin = conditions: prior-art statement; cited from earlier work
anticoagulant effect = conditions: oral; prior-art statement; cited from earlier work
[3] = prior-art statement; cited from earlier work
human FXa = human FXa (Homo sapiens, UniProt P00742); assay: Measurement of Activated Blood Coagulation Factor X (FXa) Inhibition Activity; type: biochemical; conditions: substrate S-2222, 37° C., 15 minutes
Description: Measurement of Activated Blood Coagulation Factor X (FXa) Inhibition Activity
A 180 μl portion of physiological saline solution containing a compound to be tested was mixed with 200 μl of Tris-HCl buffer (pH 8.4) and 100 μl of 1 mM S-2222 (KabiVitrum AB) aqueous solution, and the mixture was incubated at 37° C. 20 μl of Tris-HCl buffered saline (pH 7.45) containing 0.6 unit/ml of human FXa was added to the mixture. After 15 minutes of incubation at the same temperature, the reaction was stopped by adding 100 μl of 60% acetic acid, and absorbance of the reaction mixture was measured. A reaction mixture with no addition of a test compound was used as a blank, and another reaction mixture in which 60% acetic acid was added prior to the addition of FXa was used as a control.

male Slc:SD rats [4] = assay: Toxicity Test by Repeated Oral Administration to Rat; type: in vivo
Description: Toxicity Test by Repeated Oral Administration to Rat
Each of the compounds of the present invention was dissolved in distilled water and administered orally to each of five five-week old male Slc:SD rats, at a dose of 800 mg/kg body weight. The oral administration was carried out once a day and repeated for 10 days to observe mortality.

[5] = test system: thrombus formed on copper wire in arteriovenous shunt; assay: Antithrombotic Effect by Oral Administration to Rat in an Arteriovenous Shunt Model; type: in vivo, male STD:Wistar rat; conditions: for Thrombus formed: mean ± S.E. (n = 6), p < 0.05 per control
Description: Antithrombotic Effect by Oral Administration to Rat in an Arteriovenous Shunt Model
Amtithrombotic effect by oral administration of the compound of the present invention was measured by slightly modifying the procedure disclosed in Thrombosis Research, vol. 54, pp. 399-410, 1989.
A predetermined amount of a compound to be tested was dissolved in purified water and administered orally to a male STD:Wistar rat, and the rat was anesthetized 15 minutes after the administration. An artery clip was attached to proximally the carotid artery of the thus anesthetized rat to stop blood circulation and to insert and fix an end of a shunt filled with physiological saline, while the other end of the shunt was inserted into the jugular vein and fixed. In this instance, the shunt was prepared by indwelling a copper wire (0.17 mm in diameter and 20 cm in length) in a polyethylene tube (Hibiki No. 5; 5/3 mm in outer diameter and 21 cm in length) and connecting each end of the tube with a polyethylene tube (Hibiki No. 3; 1 mm in outer diameter and 3 cm in length) using a 3 mm silicone tube. After 30 minutes of the administration, the artery clip was removed to flow blood into the shunt. After 7 minutes of the blood recirculation, the copper wire was pulled out together with formed thrombus and washed with 10 ml of physiological saline. Thereafter, the amount of thrombus formed on the copper wire was determined as protein in accordance with the procedure disclosed in Journal of Biological Chemistry, vol. 193, pp. 265-275, 1951. As a control, water was administered instead of the compound to be tested to calculate thrombosis inhibition rate after administration of the compound.

male Slc:SD rats [6] = assay: Toxicity Test by Single Oral Administration to Rat; conditions: in vivo
[7] = Solubility observed in preparation (solubility to any solvent); type: physicochemical; conditions: hydrochloride monohydrate
[8] = test system: activated partial thromboplastin time (APTT); assay: Measurement of Anticoagulant Activity in Oral Administration (APTT); type: in vivo, male STD:Wistar rat; conditions: rat, 100 mg/kg
Description: Measurement of Anticoagulant Activity in Oral Administration
An aqueous solution of each compound to be tested was administered orally to each male STD:Wistar rat individual under an anesthetic, at a dose of 10 ml/kg body weight. Blood samples were collected periodically and blood plasma preparations were obtained from the samples to measure activated partial thromboplastin time (APTT). In the same manner, APTT was measured by administering pure water and used as a control. A test/control APTT ratio was calculated and used as an index of the anticoagulant activity.

thrombin = biological target: T1, thrombin (Bos taurus, UniProt P00735); assay: Measurement of Thrombin Inhibition Activity; type: biochemical
T1 construct: thrombin (for topical application use, Sankyo Co., Ltd.); purchased Sankyo Co., Ltd
Description: Measurement of Thrombin Inhibition Activity
A 100 μl portion of Tris-HCl buffered saline (pH 7.45) (TBS) containing 6 mg/ml of fibrinogen (Type 1, Daiichi Pure Chemicals Co., Ltd.) was mixed with 100 μl of physiological saline solution. At 37° C., 100 μl of Tris-HCl buffered saline (pH 7.45) (TBS) containing varying amounts of thrombin (for topical application use, Sankyo Co., Ltd.) was added to the mixture prepared above to measure clotting time using CLOTEC (Sanko Junyaku Co., Ltd.) and to prepare a calibration curve.

[9] = oral 800 mg/kg once a day for 10 days, 5 rats administered

human FXa, sequence (P00742 235-488 limits assumed): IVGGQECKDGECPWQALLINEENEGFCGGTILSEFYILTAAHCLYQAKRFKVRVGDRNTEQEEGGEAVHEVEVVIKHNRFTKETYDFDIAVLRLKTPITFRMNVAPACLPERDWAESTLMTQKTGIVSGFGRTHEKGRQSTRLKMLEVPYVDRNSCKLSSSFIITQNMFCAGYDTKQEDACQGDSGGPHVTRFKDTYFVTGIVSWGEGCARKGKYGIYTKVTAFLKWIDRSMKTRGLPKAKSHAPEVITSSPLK
human FXa, sequence (P00742 41-179 limits assumed): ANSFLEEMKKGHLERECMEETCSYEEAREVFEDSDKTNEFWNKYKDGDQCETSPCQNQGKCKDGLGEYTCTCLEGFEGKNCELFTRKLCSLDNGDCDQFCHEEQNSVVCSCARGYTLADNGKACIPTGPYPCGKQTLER

N=C(N)c1ccc2oc(CCc3cc4cc(C(=N)N)ccc4o3)cc2c1 [DABE, 1,2-bis(5-amidino-2-benzofuranyl)ethane, reference compound]
Anti-Coagulation CT2 [1]: 1.6 µM | solubility at 10 min [2]: ≤ 5 mg/mL | separation of FXa and thrombin inhibitory activities (in words) (FXa and thrombin): cannot be separated sufficiently from each other | anticoagulant effect when administered orally (in words) (anticoagulant effect): does not show its anticoagulant effect when administered orally | water solubility (in words) [3]: very low water solubility | IC50 (human FXa): 95 nM

CC(=N)N1CC[C@H](Oc2ccc(C(Cc3ccc4ccc(C(=N)N)cc4c3)C(=O)O)cc2)C1.Cl.O.O.O.O.O (single isomer, unassigned; (+)) [Inventive Example 45]
Anti-Coagulation CT2 [1]: 0.49 µM | Mortal Case (male Slc:SD rats [4]; [9]): 0 | solubility at 10 min [2]: ≥ 200 mg/mL | Thrombosis inhibition ([5]; 10 mg/kg): 34% | Thrombus formed ([5]; 10 mg/kg): 585 ± 85 µg | Thrombosis inhibition ([5]; 30 mg/kg): 60% | Thrombus formed ([5]; 30 mg/kg): 356 ± 51 µg | mortality (male Slc:SD rats [6]): No mortal case

Cl.Cl.N=C(N)c1ccc2sc(CC(C(=O)O)c3ccc(O[C@H]4CCNC4)cc3)cc2c1 (stereo partly drawn) [Inventive Example 25, 3-(5-amidinobenzo[b]thien-2-yl)-2-[4-[((3S)-3-pyrrolidin-yl)oxy]phenyl]propionic Acid Dihydrochloride]
Mortal Case (male Slc:SD rats [4]; [9]): 0 | solubility at 10 min [2]: ≥ 500 mg/mL

Cl.Cl.N=C(N)c1ccc2oc(CC(C(=O)O)c3ccc(O[C@H]4CCNC4)cc3)cc2c1 (stereo partly drawn) [Inventive Example 19, 3-(5-amidino-2-benzofuranyl)-2-[4-[((3S)-3-pyrrolidinyl)-oxy]phenyl]propionic Acid Dihydrochloride]
Mortal Case (male Slc:SD rats [4]; [9]): 0 | solubility at 10 min [2]: ≥ 450 mg/mL

Cl.N=C(N)c1ccc2ccc(CC(C(=O)O)c3ccc(OCC4CCNCC4)cc3)cc2c1.O (centres unmarked) [Inventive Example 18, 3-(7-amidino-2-naphthyl)-2-[4-[(4-piperidinyl)methoxy]-phenyl]propionic Acid Hydrochloride Monohydrate]
solubility to any solvent (in words) [7]: very low

CC(=N)N1CC[C@H](Oc2ccc(C(Cc3cc4cc(C(=N)N)ccc4s3)C(=O)O)cc2)C1 (stereo partly drawn) [Inventive Example 88, 2-[4-[((3S)-1-acetimidoyl-3-pyrrolidinyl)oxy]phenyl]-3-(5-amidinobenzo[b]thien-^2-yl)propionic Acid Dihydrochloride]
Mortal Case (male Slc:SD rats [4]; [9]): 0

CC(=N)N1CCC[C@H]1COc1ccc(C(Cc2cc3cc(C(=N)N)ccc3s2)C(=O)O)cc1.Cl.Cl (stereo partly drawn) [Inventive Example 96, 2-[4-[((2S)-1-acetimidoyl-2-pyrrolidinyl)methoxy]phenyl]-3-(5-amidinobenzo[b]thien-2-yl)propionic Acid Dihydrochloride]
Anti-Coagulation CT2 [1]: 0.54 µM | solubility at 10 min [2]: ≥ 400 mg/mL | Test/Control APTT Ratio ([8]; 0.5 hr): 1.68 | Test/Control APTT Ratio ([8]; 1 hr): 1.64 | Test/Control APTT Ratio ([8]; 2 hr): 1.57 | Test/Control APTT Ratio ([8]; 4 hr): 1.42 | IC50 (thrombin): 29000 nM | IC50 (human FXa): 44 nM

Cl.Cl.N=C(N)c1ccc2cc(CC(C(=O)O)c3ccc(O[C@H]4CCNC4)cc3)[nH]c2c1 (stereo partly drawn) [Inventive Example 69, 3-(6-amidino-2-indolyl)-2-[4-[((3S)-3-pyrrolidinyl)oxy]-phenyl]propionic Acid Dihydrochloride]
Mortal Case (male Slc:SD rats [4]; rat, in vivo, po, 800 mg/kg): 0
